Assay results published in patent US12479792B2, “Compositions of chelating molecules” (The Regents of the University of California, priority 2016, dated 2025).

What was measured:
[1] = Eu(III) complex formation constants by incremental spectrophotometric titration; type: binding
Description: (§1) Metal, Chelator Solutions. The trivalent lanthanide Ln(III) working stock solutions were prepared in standardized 0.1 M HCl. A Zr(IV) stock solution was prepared by dissolving ZrCl4 in 3.0 M H2SO4, to prevent hydrolysis. The metal salt ZrCl4 was handled and stored in a glovebox kept under inert atmosphere. The Zr(IV) stock solution was standardized against EDTA, with xylene orange as the indicator (Welcher, F. J. The analytical uses of ethylenediamine tetraacetic acid; 1958). A Th(IV) stock solution was prepared in 0.1 M H2SO4. Stock solutions (4 mM) of Ent, and 3,4,3-LI(CAM) were prepared by direct dissolution of a weighed portion of chelator in DMSO and aliquots were removed prior to each set of experiments.
(§2) Solution Thermodynamics. All titrant solutions were degassed by boiling for 1 h while being purged under Ar. Carbonate-free 0.1 M KOH was prepared from concentrate (J.T Baker Dilut-It) and was standardized by titrating against 0.1 M potassium hydrogen phthalate (99.95%, Sigma Aldrich). Solutions of 0.1 M HCl were similarly prepared and were standardized by titrating against TRIS (99.9%, J.T. Baker). The glass electrode (Metrohm-Micro Combi-response to [H+]) used for the pH measurements was calibrated at 25.0° C. and at an ionic strength of 0.1 M (KCl) before each potentiometric or spectrophotometric titration. The calibration data were analyzed using the program GLEE (Gans & O'Sullivan, Talanta, 2000, 51 (1): 33-37) to refine for the E° and slope. All thermodynamic measurements were conducted at 25.0° C., in 0.1 M KCl supporting electrolyte under positive Ar gas pressure. The automated titration system was controlled by an 867 pH Module (Metrohm). […]
(§3) Incremental Spectrophotometric Titrations. […] For the 3,4,3-LI(CAM) protonation (and Eu(III)-3,4,3-LI(CAM) complexes), titrations were performed with an initial concentration of 50 μM of 3,4,3-LI(CAM) (and 50 μM of Eu(III)) resulting in absorbance values included between 0 and 1.0 throughout the titration. […]

[2] = Th(IV) complex formation constants by spectrophotometric competition titration in the presence of DTPA; type: binding
Description: as §1, §2, §3

[3] = Zr(IV) complex formation constants by spectrophotometric competition titration in the presence of DTPA; type: binding
Description: as §1, §2, §3

[4] = Deblonde et al. 2013; Sturzbecher-Hoehne et al. 2015; cited from earlier work
[5] = Abergel et al., Inorganic chemistry 2009; given for comparison; cited from earlier work
[6] = same conditions; Abergel et al., Inorganic chemistry 2009; cited from earlier work

Row | SMILES | log β110, stability constant of Eu(III) complex ([1]; I=0.1 M (KCl), T=25° C.) | only Eu(III) species present at pH 7.4 ([1]; pH 7.4, speciation diagram, 1 equivalent of Eu(III)) | pH at which Eu(III) complexation starts ([1]; speciation diagram, 1 equivalent of Eu(III), [Eu]=[CAM]=10 μM, T=25° C., I=0.1 M, Hyss) | log β110, stability constant of Th(IV) complex ([2]; I=0.1 M (KCl), T=25° C.) | predominant Th(IV) species at physiological pH ([2]; pH 7.4, speciation diagram, 1 equivalent of Th(IV)) | pH at which Th(IV) complexes start forming ([2]; speciation diagram, 1 equivalent of Th(IV), [Th]=[CAM]=10 μM, T=25° C., I=0.1 M, Hyss) | log β110, stability constant of Zr(IV) complex ([3]; I=0.1 M (KCl), T=25° C.) | predominant Zr(IV) species at physiological pH ([3]; pH 7.4, speciation diagram, 1 equivalent of Zr(IV)) | pH at which Zr(IV) complexes start forming ([3]; speciation diagram, 1 equivalent of Zr(IV), [Zr]=[CAM]=10 μM, T=25° C., I=0.1 M, Hyss) | pH at which 4+ metal complexes are formed [4] | overall acidity ΣpKa5-8 [5] | pH at which Eu(III) species already appear [6]
1 | O=C(NCCCN(CCCCN(CCCNC(=O)c1cccc(O)c1O)C(=O)c1cccc(O)c1O)C(=O)c1cccc(O)c1O)c1cccc(O)c1O [3,4,3-LI(CAM)] | 29.7 | [Eu^IIILH]^4− | 5 | 47.7 | [MIVLH]^3− and [MIVL]^4− | ~3 | 57.3 | [MIVLH]^3− and [MIVL]^4− | ~3 | – | – | –
2 | O=C(NCCCN(CCCCN(CCCNC(=O)c1cccc(=O)n1O)C(=O)c1cccc(=O)n1O)C(=O)c1cccc(=O)n1O)c1cccc(=O)n1O [3,4,3-LI(1,2-HOPO)] | – | – | – | – | – | – | – | – | – | < 0 | 21.2 | 1
